Experimental data reported in patent US9546129B2, “DTPA prodrugs, compositions thereof, and methods of using the same” (priority 2012, dated 2017).
Marks after values point to notes of the source that are not given here.

Test system: ^241Am contaminated beagle dogs (inhalation)
Assay: Decorporation efficacy in beagle dogs after ^241Am nitrate inhalation (Example 2)
Type: in vivo, beagle dog
Conditions: for Average percent recovered activity, Feces / Average percent recovered activity, Urine: cumulative, Mean (SEM); for Average percent recovered activity, GIT / Average percent recovered activity, Kidney / Average percent recovered activity, Liver / Average percent recovered activity, Lung / Average percent recovered activity, Ovaries / Average percent recovered activity, Soft Tissue / Average percent recovered activity, Spleen / Average percent recovered activity, TBLN / Average percent recovered activity, Testes / Average percent recovered activity, Total Bone: day 14, Mean (SEM)
Experimental: The efficacy of C2E2 of Lot 050 obtained using Method 2 was evaluated in male and female beagle dogs administered a nitrate complex of americium-241 (^241Am) via inhalation (INH). C2E2 was administered 24 hours post ^241Am inhalation exposure. Animals were monitored and urine and feces were collected daily. Cages were rinsed daily. Animals were euthanized 14 days later and tissues collected. Tissues were processed and analyzed for ^241Am content. The in-life measurements and biokinetics of ^241Am with and without chelation treatment are described.
Sixteen (16) male and female beagle dogs underwent a 14-day quarantine period for acclimation. Once released from quarantine, animals were weighed and that weight was used to randomize the animals into the study. Dogs were 13.3±2.2 months of age at study initiation and weighed 8.9±1.2 kg. After randomization, the animals were acclimated to metabolism cages for approximately 24 hours prior to radionuclide inhalation administration of ^241Am(III)-nitrate at time 0 followed by oral gavage administration of vehicle (water) or 100, 300, or 500 mg/kg C2E2 at 24 hours post inhalation exposure. Animals were placed in metabolism cages for the duration of the in-life phase.
Animals were euthanized 14 days after administration of ^241Am. A full necropsy was conducted and liver, spleen, kidneys, lungs and trachea, muscle samples (right and left quadriceps), GI tract (stomach and esophagus, upper and lower intestine), gonads, two femurs, lumbar vertebrae (L1-L4), paws and tail, TBLN, and all soft tissue remains were collected. The brain and eyes were removed from the skull and combined with the soft tissue remains. The skeleton was defleshed and all bone samples collected for analysis. Pelt was not analyzed for ^241Am content.
Urine, feces, cage rinse, and all tissue samples were processed by heat and chemical treatments. The samples were analyzed by gamma pulse height analysis.
For the study, stock C2E2 (L/N: 020WJL050) was obtained as a white powder and stored at 2-8° C. The C2E2 was weighed out and dissolved in vehicle, DI water. Solutions were prepared at 20 mg/mL, 60 mg/mL, and 100 mg/mL on each day of dosing. The formulation was protected from light by wrapping the container in aluminum foil. Metal-free spatulas, glassware, and stir bars were used when weighing and preparing the formulation.
On the morning of exposure, animals were fasted and sedated with acepromazine (0.05 mg/kg) by intramuscular administration. Dogs were anesthetized with isoflurane (5%). A latex mask was placed over the muzzle to minimize external contamination of the dog. The latex-covered muzzle was placed into the exposure plenum where a mixture of oxygen and isoflurane were continuously flowing and being monitored. Oxygen in the box was maintained at 45-55% and isoflurane was delivered as needed (2-3% in oxygen) to ensure the dog remained anesthetized. Aerosols were generated from the ^241Am nitrate solution using a Hospitec nebulizer operated at 10 psi. The aerosol was transited through a tube furnace operating at 70-80° C. to dry the aerosol and minimize the amount of acid present.
The exhaust flow was 12.2 L/min. Aerosols were collected on Pallflex® FiberFilm™ filters at a flow rate of 0.49 L/min for filter samples and 1.95 L/min for cascade impactor samples. Filters were placed in 20-mL vials with 5 mL of 7N HNO3 and vortexed for 30 seconds. The filters were removed and placed singly into another 20-mL vial. A […] aliquot was removed from the original vial. The filter and the aliquot were individually analyzed for ^241Am and the amount collected on the filter was determined. The aerosol concentration was determined to be 1155±223 nCi/L. The particle size was determined to be 0.63 μm AMAD (activity median aerodynamic diameter) with a 1.72 geometric standard deviation (GSD). Animals were exposed for 8 minutes. […]

[1] = C2E2 100 mg/kg (low dose) vs untreated control, dogs, 100 mg/kg
[2] = C2E2 100 mg/kg oral 24 h after ^241Am inhalation, dogs
[3] = C2E2 300 mg/kg (mid dose) vs untreated control, dogs, 300 mg/kg
[4] = C2E2 300 mg/kg oral 24 h after ^241Am inhalation, dogs
[5] = C2E2 500 mg/kg (high dose) vs untreated control, dogs, 500 mg/kg
[6] = C2E2 500 mg/kg oral 24 h after ^241Am inhalation, dogs
[7] = treated groups vs controls, dose not specified

## CCOC(=O)CN(CCN(CCN(CC(=O)O)CC(=O)OCC)CC(=O)O)CC(=O)O [C2E2, 6,9-bis(carboxymethyl)-3-(2-ethoxy-2-oxoethyl)-11-oxo-12-oxa-3,6,9-triazatetradecan-1-oic acid]
[1]
  Percent ^241Am content reduction in tissue, GIT: 43.9%
  Percent ^241Am content reduction in tissue, Gonads: 51.1%
  Percent ^241Am content reduction in tissue, Kidneys: 52.4%
  Percent ^241Am content reduction in tissue, Liver: 29.7%
  Percent ^241Am content reduction in tissue, Lungs: 30.6%
  Percent ^241Am content reduction in tissue, Soft Tissue: 47.1%
  Percent ^241Am content reduction in tissue, Spleen: 47.7%
  Percent ^241Am content reduction in tissue, TBLN: 22.9%
  Percent ^241Am content reduction in tissue, Total Bone: 41.6%
[2]
  Average percent recovered activity, Feces: 31.78 (3.21) %
  Average percent recovered activity, Urine: 22.35 (0.56)** %
C2E2 100 mg/kg, dogs
  Average percent recovered activity, GIT: 0.53 (0.05)** %
  Average percent recovered activity, Kidney: 0.37 (0.03)** %
  Average percent recovered activity, Liver: 19.13 (1.34)** %
  Average percent recovered activity, Lung: 9.69 (1.77)* %
  Average percent recovered activity, Ovaries: 0.001 (0.000) %
  Average percent recovered activity, Soft Tissue: 1.08 (0.07)** %
  Average percent recovered activity, Spleen: 0.16 (0.03) %
  Average percent recovered activity, TBLN: 0.028 (0.002) %
  Average percent recovered activity, Testes: 0.003 (0.001)* %
  Average percent recovered activity, Total Bone: 14.90 (1.97)** %
[3]
  Percent ^241Am content reduction in tissue, GIT: 58.2%
  Percent ^241Am content reduction in tissue, Gonads: 66.3%
  Percent ^241Am content reduction in tissue, Kidneys: 63.0%
  Percent ^241Am content reduction in tissue, Liver: 51.0%
  Percent ^241Am content reduction in tissue, Lungs: 48.2%
  Percent ^241Am content reduction in tissue, Soft Tissue: 51.8%
  Percent ^241Am content reduction in tissue, Spleen: 74.8%
  Percent ^241Am content reduction in tissue, TBLN: 31.7%
  Percent ^241Am content reduction in tissue, Total Bone: 45.5%
  Percent change in excretion, Feces: 155%
[4]
  Average percent recovered activity, Feces: 41.85 (4.43)** %
  Average percent recovered activity, Urine: 21.93 (2.26)** %
C2E2 300 mg/kg, dogs
  Average percent recovered activity, GIT: 0.39 (0.06)** %
  Average percent recovered activity, Kidney: 0.28 (0.04)** %
  Average percent recovered activity, Liver: 13.35 (1.51)** %
  Average percent recovered activity, Lung: 7.23 (0.89)** %
  Average percent recovered activity, Ovaries: 0.001 (0.001)* %
  Average percent recovered activity, Soft Tissue: 0.99 (0.12)** %
  Average percent recovered activity, Spleen: 0.07 (0.02)** %
  Average percent recovered activity, TBLN: 0.024 (0.004) %
  Average percent recovered activity, Testes: 0.003 (0.001)* %
  Average percent recovered activity, Total Bone: 13.93 (1.30)** %
[5]
  Percent ^241Am content reduction in tissue, GIT: 54.1%
  Percent ^241Am content reduction in tissue, Gonads: 55.3%
  Percent ^241Am content reduction in tissue, Kidneys: 61.8%
  Percent ^241Am content reduction in tissue, Liver: 71.7%
  Percent ^241Am content reduction in tissue, Lungs: 63.5%
  Percent ^241Am content reduction in tissue, Soft Tissue: 50.7%
  Percent ^241Am content reduction in tissue, Spleen: 69.0%
  Percent ^241Am content reduction in tissue, TBLN: 35.0%
  Percent ^241Am content reduction in tissue, Total Bone: 48.3%
  Percent change in excretion, Urine: 1310%
[6]
  Average percent recovered activity, Feces: 36.53 (1.18)* %
  Average percent recovered activity, Urine: 35.63 (0.70)** %
C2E2 500 mg/kg, dogs
  Average percent recovered activity, GIT: 0.44 (0.05)** %
  Average percent recovered activity, Kidney: 0.29 (0.01)** %
  Average percent recovered activity, Liver: 7.71 (0.35)** %
  Average percent recovered activity, Lung: 5.10 (0.31)** %
  Average percent recovered activity, Ovaries: 0.001 (0.000) %
  Average percent recovered activity, Soft Tissue: 1.01 (0.02)** %
  Average percent recovered activity, Spleen: 0.09 (0.02)* %
  Average percent recovered activity, TBLN: 0.023 (0.003) %
  Average percent recovered activity, Testes: 0.003 (0.001)* %
  Average percent recovered activity, Total Bone: 13.20 (0.86)** %
dogs, single oral 100, 300, 500 mg/kg, one 500 mg/kg animal (4004) had foamy emesis
  In-life observations: no unusual or adverse effects
[7]
  Reduction of ^241Am content, TBLN: About 50%
  Reduction of ^241Am content, total bone content: ~40%
